# Laboratory results published in patent US9302999B2, “Substituted triazoles as herbicides” (E. I. DU PONT DE NEMOURS AND COMPANY, priority 2012, dated 2016).
# Tests used:
# Barnyardgrass = test: Test C postemergence: barnyardgrass; format: in vivo, Echinochloa crus-galli; conditions: 125 g ai/ha, scale 0 to 100, 0 no effect, 100 complete control
# Excerpt: (§1) Seeds of plant species selected from blackgrass (Alopecurus myosuroides), bromegrass, downy (downy bromegrass, Bromus tectorum), foxtail, green (green foxtail, Setaria viridis), ryegrass, Italian (Italian ryegrass, Lolium multiflorum), winter wheat (Triticum aestivum), wild oat (Avena fatua), galium (catchweed bedstraw, Galium aparine), bermudagrass (Cynodon dactylon), surinam grass (Brachiaria decumbens), cocklebur (common cocklebur, Xanthium strumarium), corn (Zea mays), large crabgrass (Digitaria sanguinalis), woolly cupgrass (Eriochloa villosa), foxtail, giant (giant foxtail, Setaria faberii), goosegrass (Eleusine indica), johnsongrass (Sorghum halepense), kochia (Kochia scoparia), lambsquarters (Chenopodium album), morningglory (Ipomoea coccinea), nightshade (eastern black nightshade, Solanum ptycanthum), nutsedge, yellow (yellow nutsedge, Cyperus esculentus), pigweed (Amaranthus retroflexus), ragweed (common ragweed, Ambrosia elation), soybean (Glycine max), common (oilseed) sunflower (Helianthus annuus), Russian thistle (Salsola kali) and velvetleaf (Abutilon theophrasti) were planted into a blend of loam soil and sand and treated preemergence with test chemicals formulated in a non-phytotoxic solvent mixture which included a surfactant.
# (§2) At the same time, plants selected from these crop and weed species and also barley (winter barley, Hordeum vulgare), canarygrass (Phalaris minor), chickweed (common chickweed, Stellaria media) windgrass (Apera spica-venti) and deadnettle (henbit deadnettle, Lamium amplexicaule) were planted in pots containing Redi-Earth® planting medium (Scotts Company, 14111 Scottslawn Road, Marysville, Ohio 43041) comprising spaghnum peat moss, vermiculite, wetting agent and starter nutrients and treated with postemergence applications of test chemicals formulated in the same manner. Plants ranged in height from 2 to 18 cm (1- to 4-leaf stage) for postemergence treatments.
# (§3) Treated plants and controls were maintained in a greenhouse for 13 to 15 days, after which time all species were compared to controls and visually evaluated. Plant response ratings, summarized in Table C, are based on a scale of 0 to 100 where 0 is no effect and 100 is complete control. A dash (-) response means no test result.
# Oilseed Rape [1] = test: Test C postemergence: oilseed rape; format: in vivo, Brassica napus; conditions: 125 g ai/ha, scale 0 to 100, 0 no effect, 100 complete control
# Excerpt: as §1, §2, §3
# Waterhemp [2] = test: Test C postemergence: waterhemp; format: in vivo
# Excerpt: as §2, §3
# Waterhemp [3] = test: Test C postemergence: waterhemp; format: in vivo, Amaranthus rudis; conditions: 125 g ai/ha, scale 0 to 100, 0 no effect, 100 complete control
# Excerpt: as §1, §2, §3
# [4] = system: barnyardgrass (Echinochloa crus-galli); test: Test C pre-/postemergence: barnyardgrass; format: in vivo; conditions: scale 0 to 100, 0 no effect, 100 complete control
# Excerpt: as §1, §2, §3
# Oilseed Rape [5] = test: Test C preemergence: oilseed rape; format: in vivo, Brassica napus; conditions: 125 g ai/ha, scale 0 to 100, 0 no effect, 100 complete control
# Oilseed Rape [6] = test: Test C preemergence: oilseed rape; format: in vivo; conditions: scale of 0 to 100, 0 is no effect, 100 is complete control
# Excerpt: as §1, §3
# Waterhemp [7] = test: Test C pre-/postemergence: waterhemp; format: in vivo; conditions: scale 0 to 100, 0 no effect, 100 complete control
# Excerpt: as §1, §2, §3
# [8] = 31 g ai/ha, scale 0 to 100 (0 no effect, 100 complete control)
# [9] = 62 g ai/ha, scale 0 to 100 (0 no effect, 100 complete control)
Compound,"Plant response rating, Barnyardgrass (Barnyardgrass)","Plant response rating, Oilseed Rape (Oilseed Rape [1])","Plant response rating, Waterhemp (Waterhemp [2]; [8])","Plant response rating, Waterhemp (Waterhemp [2]; [9])","Plant response rating, Waterhemp (Waterhemp [2]; 250 g ai/ha, scale 0 to 100)","Plant response rating, Waterhemp (Waterhemp [3])","Plant response rating, Barnyardgrass ([4]; Preemergence, 250 g ai/ha)","Plant response rating, Oilseed Rape (Oilseed Rape [5])","Plant response rating, Oilseed Rape (Oilseed Rape [6]; 31 g ai/ha)","Plant response rating, Oilseed Rape (Oilseed Rape [6]; 62 g ai/ha)","Plant response rating, Waterhemp (Waterhemp [7]; Preemergence, 250 g ai/ha)","Plant response rating, Barnyardgrass ([4]; Postemergence, 16 g ai/ha)","Plant response rating, Waterhemp (Waterhemp [7]; Postemergence, 16 g ai/ha)"
CCc1nn(-c2ccc(F)cc2)nc1Cc1ccnc(C(F)(F)F)c1 [Compound 154],25,95,90,98,98,98,100,90,5,90,100,,
CCc1nn(-c2ccc(C(F)(F)F)cc2)nc1Cc1ccnc(C(F)(F)F)c1 [Compound 155],55,95,98,98,98,98,100,90,50,90,100,,
Cc1nn(-c2ccc(F)c(C(F)(F)F)c2)nc1Cc1ccnc(C(F)(F)F)c1 [Compound 156],40,95,98,98,98,98,100,90,10,60,100,,
FCc1nn(-c2ccc(F)cc2)nc1Oc1ccnc(C(F)(F)F)c1 [Compound 160],35,95,95,98,,98,,80,5,80,,15,95
